# According to US20070037202A1, “Potentiation of cancer therapies by ZNF217 inhibition” (Regents of the University of California, priority 2002, published 2007):
# Key:
# [1] = tested on: HBL100 cells transfected with ZNF217-EGFP; assay: Apoptosis assay, annexin V staining; format: cell-based, human; details: for annexin staining: ZNF217-EGFP transfected HBL100
# Description: (§1) 1.5×10^5 of Hela cells, ZNF217-GFP transfected HeLa cells, HBL100 cells and ZNF217-GFP transfected HBL100 cells were set up in six well plates and cultured as described above. One the second day, the cells were treated with 100 ng/ml doxirubicin for 16 hours. The cell culture supernatants and cells were collected and washed twice with PBS, resuspended in 100 μl of binding buffer (10 mM HEPS, 140 mM NaCl and 2.5 mM CaCl2, pH 7.4). 5 μl of Annexin V antibody (Alexa Fluor 633 from Molecular Probes) was added and the cells were incubated at room temperature for 15 minutes. After the incubation, 400 μl of binding buffer were added and cell samples were analyzed by flow cytometry. A 633-nm wavelength laser was used to measure the apoptotic cell population. For imaging 1.5×10^4 cells were seeded in 4 well cover glass slides (Fisher). Doxorubicin treating cells 16 hours later, the cells were washed with PBS twice and 200 μl of binding buffer were added, staining process was as same as above and in the meantime, 0.5 μM of DAPI were added to satin the cell nucleus. After staining, the cells were washed twice again with PBS, 400 μl of Binding buffer were added. The apoptotic cells were imaged in Seize con-focal image system.
# ZNF217 silencing RNA (siRNA) constructs were introduced into HBL100 cells transfected with znf217 and the cells were subsequently treated with Doxorubicin.
# The siRNA Dicer Generation kit from Gene Therapy System was used to generate a series of siRNAs. Approximately 30 different 22 bp siRNA sequences were generated, using the following primers: […]
# [2] = tested on: HBL100 cells; assay: Apoptosis assay, annexin V staining; format: cell-based, human; details: for annexin staining: HBL100
# Description: as §1
# [3] = tested on: 184 HMEC and ZNF217 immortalized HMEC; assay: Doxorubicin induced cell death in ZNF217 transduced versus parental HMEC; format: cell-based; details: 100 ng/ml doxorubicin; p=0.0146
# Excerpt: In order to determine if ZNF217 could confer resistance to doxorubicin on primary mammary epithelial cells, the sensitivity of HMECs which had been previously immortalized by a ZNF217-HA expression construct (Nonet, G. H. et al., 2001, supra) were compared to parental 184 HMECs with finite life span. […] Thus, as well as promoting HMEC immortalization, ZNF217 expression protects HMEC against doxorubicin-induced apoptosis.
# [4] = tested on: MCF7, 600MPE and HBL100 breast cancer cell lines; assay: Sensitivity of breast cancer cell lines to doxorubicin (cell death)
# [5] = increasing concentrations, in combination with doxorubicin
# [6] = not also treated with doxorubicin
smiles,measurement,setting,value
CN1N=C(N)c2cn([C@@H]3O[C@H](COP(=O)(O)O)[C@@H](O)[C@H]3O)c3ncnc1c23 [triciribine phosphate],cell death,"[1]; HBL100 transfected with ZNF217-encoding constructs (FIG. 12), increasing concentrations, in combination with Doxorubicon",increased cell death
same,annexin staining,[1]; [5],increased annexin staining
same,annexin staining,[1]; [6],did not display significant staining
same,annexin staining,[2]; [5],increased annexin staining
same,annexin staining,[2]; [6],did not display significant staining
same,cell death,"[2]; HBL100 not transfected (FIG. 11), increasing concentrations, in combination with Doxorubicon",increased cell death
COc1cccc2c1C(=O)c1c(O)c3c(c(O)c1C2=O)C[C@@](O)(C(=O)CO)C[C@@H]3O[C@H]1C[C@H](N)[C@H](O)[C@H](C)O1 [doxorubicin],less cell death in ZNF217 transduced cells than in control non-transduced 184 HMEC,[3],2.5 fold
same,cells stained with annexin,"[1]; ZNF217 transfected HBL100, doxorubicin treatment",Less than 40%
same,cells stained with annexin,"[2]; control HBL100 cells, doxorubicin treatment",About 80%
same,cell death upon exposure to doxorubicin,[4]; HBL100 compared with MCF7 and 600MPE,higher levels of cell death
same,resistance to doxorubicin of cell lines with high relative ZNF217 expression versus HBL100,"[4]; MCF7 and 600MPE versus HBL100, all wild type TP53",three to five-fold more resistant
